Measurements from patent publication US10993895B2, “Composition obtainable by passing singlet oxygen through extra virgin olive oil” (priority 2017, dated 2021).

Key:
MRSA 10 = assay: Infected incised wound of rats, MRSA 10; format: in vivo, Rattus Norvegicus; conditions: wound infected with MRSA 10; 6 rats
Procedure: (§1) Effectivity Study on Infected Incised Wound of Rattus Norvegicus Experimental Research on Animal Testing
(§2) Method: Solution Preparation Protocol for Infected Incised Wound
(§3) Preparing the solution with these following steps:
(§4) 1. Bacteria from the infected patient clinical isolate is planted on the media by streaking at for quadrant
(§5) 2. The isolated bacteria in separated colonies are dissolved in the tube that contain pz liquid
(§6) 3. In order to analyze the cloudness level of the solution on the tube, nephelometer is used to figure the cloudness level to 0.50 McFarland.
(§7) 4. 0.5 McFarland is equal to 1.5×10^8 CFU bacteria.
(§8) Infected Incised Wound Preparation Protocol on Animals
(§9) 1. Preparation of animals:
(§10) 1. Inject the animals with anesthesia drug containing ketamine hydrochloride, 0.1-0.2 ml
(§11) 2. Place them back into the cage while waiting them to be fully unconscious as the effect of the drug.
(§12) 3. Shave the back hair of the animals with razor blade.
(§13) 4. Give antiseptics, i.e. povidone iodine and alcohol. Wait for three minutes.
(§14) 5. Make a 2-cm long incision on the animal's back. Should any bleeding occurred, wipe with cotton.
(§15) 6. Swipe the incised spot with the bacteria solution using a cotton bud.
(§16) 7. Cover the spot with gauze bandage and stick it with plaster.
8. […]
(§17) The tissue's processing is started after the fixation completed. […] Remove from the oven and leave it in room temperature, then the tissue is ready to dye. […]

MRSA 6 = assay: Infected incised wound of rats, MRSA 6; format: in vivo, Rattus Norvegicus; conditions: wound infected with MRSA 6; 6 rats
Procedure: as §1, §2, §3, §4, §5, §6, §7, §8, §9, §10, §11, §12, §13, §14, §15, §16
8. […]
as §17

[1] = system: Incised Wound Rattus Norvegicus; assay: Acute toxicity study on incised wound healing in rats; format: in vivo; set-up: Neo vascularization: key to the marks not given beside the values
Procedure: Research Protocol: Acute Toxicity Study on the Incised Wound healing Rattus Norvegicus In Vivo research on animals
as §9
1. Inject the animals with anesthesia drug containing ketamine hydrochloride, 0.1-0.2 ml as illustrated in 101 of FIG. 1.
2. Place them back into the cage while waiting them fully unconscious as the effect of the drug.
as §12
4. Give antiseptics, i.e. povidone iodine and alcohol. Wait for three minutes as illustrated in 102 of FIG. 1.
5. Make a 2-cm long incision on the animal's back as illustrated in 103 of FIG. 1. Should any bleeding occurred, wipe with cotton.
6. Apply cotton bud ton the incision spot.
7. Cover the spot with gauze bandage and stick it with plaster as illustrated in 104 of FIG. 1.
8. Place the animal back in to the cage.
2. Fixation Tissue Protocol
The skin organs from treatment and control group are taken after the incision, then put them to the bottles containing fixation solution, and give labels. The intensions of the fixation are:
3. Tissue Processing Protocol/Paraffin Block
The tissue's processing is started after the fixation completed. The steps of this process are dehydration, clearing, and impregnation/embedding. […] Afterward, do the clearing by place the tissue into xylol. Then, do the impregnation/embedding by using paraffin. The detail of this process is as follows: After the fixation is completed, the tissues are placed into the following solution, consecutively. 1. Alcohol 70%: - 2. Alcohol 80% 1 hour 3. Alcohol 95%: 2 hour 4. Alcohol 95%: 1 hour 5. Alcohol 100%: 1 hour 6. Alcohol 100%: 1 hour 7. Alcohol 100%: 1 hour 8. Xylol: 1 hour 9. Xylol: 1 hour 10. Xylol: 2 hour 11. Paraffin (56-58° C.): 2 hour 12. Paraffin (56-58° C.) 2 hour 13. Paraffin (56-58° C.) 2 hour
4. Tissue Slicing and Attaching Process on object glass Protocol.
5. Hematoxilin Eosin Dyeing Protocol
The steps of HE dyeing method are:
This research use 24 Rats divided into 4 groups of treatment; they are Vaseline, Sibro, Gentamicin and Test. Composition. Each group has 6 rats.
2. […] After then stopped the bleeding, applied Vaseline, Sibro, Gentamicin and Test Composition to each group. Application of Vaseline (201), Sibro (202), Gentamicin (203) and Test Composition (204) are illustrated in FIG. 2.
There are 4 parameters in observing incised wound microscopically, they are Epithelization, Fibroplasia, Neovascularization, and scar.

[2] = incised wound, microscopic (HE), after 7 days

Row | Molecule | Dead Rats (MRSA 10) | Survival (MRSA 10) | Dead Rats (MRSA 6) | Survival (MRSA 6) | Wound condition on day −7 (macroscopic) ([1]; incised wound, macroscopic condition) | Epitheliazation [1, 2] | Fibroplasia [1, 2] | Neo vascularization [1, 2] | Scar [1, 2] | Dead Rats ([1]; substance applied on 2-cm incised wound, 6 rats per group, up to day 7) | Survival on day −7 ([1]; substance applied on 2-cm incised wound, survivors/6 rats)
1 | C/C(=C\C(=O)OCCCCCCCCC(=O)O)C[C@@H]1OC[C@H](C[C@@H]2O[C@H]2[C@@H](C)[C@H](C)O)[C@@H](O)[C@H]1O [mupirocine, Mupirocin] | 0 | 6 | 0 | 6 |  |  |  |  |  |  | 
2 | Gentamicin [Gentamisin] |  |  |  |  | Closing (with 1 granulation) | + | + | ++ | + | 0 | 6/6
